Laboratory results taken from the supplement of paper PMC5662764.
± gives the standard deviation of the averaged measurements.

Assays:
Test in all cases: normalised growth rate inhibition (GR value) relative to DMSO control (GR (1 = untreated growth, 0 = cytostasis, <0 = cytotoxic)); higher = less growth inhibition
Settings in all cases: 72 h
HS578T = test system: HS578T
Protocol: (§1)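 Breast cancer cell lines (BT-20, Hs 578T, MCF 10A, MCF7, MDA-MB-231, SK-BR-3) were plated in 384-well plates and treated 24 h later with drugs at six concentrations (0.04-10 µM). Viable cells were counted by Hoechst/dead-cell-stain imaging at 0 and 72 h. Counts were normalised to DMSO controls on the same plate to give the relative cell count and the growth-rate inhibition (GR) value; technical plate triplicates were averaged for each biological replicate.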

MCF7 = test system: MCF7
Protocol: as §1

BT20 = test system: BT20
Protocol: as §1

MCF10A = test system: MCF10A
Protocol: as §1

SKBR3 = test system: SKBR3
Protocol: as §1

MDAMB231 = test system: MDAMB231
Protocol: as §1

SMILES	normalised growth rate inhibition (HS578T; 0.04 µM)	normalised growth rate inhibition (HS578T; 0.12 µM)	normalised growth rate inhibition (HS578T; 0.37 µM)	normalised growth rate inhibition (HS578T; 1.11 µM)	normalised growth rate inhibition (HS578T; 3.33 µM)	normalised growth rate inhibition (HS578T; 10 µM)	normalised growth rate inhibition (MCF7; 0.04 µM)	normalised growth rate inhibition (MCF7; 0.12 µM)	normalised growth rate inhibition (MCF7; 0.37 µM)	normalised growth rate inhibition (MCF7; 1.11 µM)	normalised growth rate inhibition (MCF7; 3.33 µM)	normalised growth rate inhibition (MCF7; 10 µM)	normalised growth rate inhibition (BT20; 0.04 µM)	normalised growth rate inhibition (BT20; 0.12 µM)	normalised growth rate inhibition (BT20; 0.37 µM)	normalised growth rate inhibition (BT20; 1.11 µM)	normalised growth rate inhibition (BT20; 3.33 µM)	normalised growth rate inhibition (BT20; 10 µM)	normalised growth rate inhibition (MCF10A; 0.04 µM)	normalised growth rate inhibition (MCF10A; 0.12 µM)	normalised growth rate inhibition (MCF10A; 0.37 µM)	normalised growth rate inhibition (MCF10A; 1.11 µM)	normalised growth rate inhibition (MCF10A; 3.33 µM)	normalised growth rate inhibition (MCF10A; 10 µM)	normalised growth rate inhibition (SKBR3; 0.04 µM)	normalised growth rate inhibition (SKBR3; 0.12 µM)	normalised growth rate inhibition (SKBR3; 0.37 µM)	normalised growth rate inhibition (SKBR3; 1.11 µM)	normalised growth rate inhibition (SKBR3; 3.33 µM)	normalised growth rate inhibition (SKBR3; 10 µM)	normalised growth rate inhibition (MDAMB231; 0.04 µM)	normalised growth rate inhibition (MDAMB231; 0.12 µM)	normalised growth rate inhibition (MDAMB231; 0.37 µM)	normalised growth rate inhibition (MDAMB231; 1.11 µM)	normalised growth rate inhibition (MDAMB231; 3.33 µM)	normalised growth rate inhibition (MDAMB231; 10 µM)
O=c1cc(N2CCOCC2)oc2c(-c3cccc4c3sc3ccccc34)cccc12 [NU-7441]	0.974 ± 0.01	0.9337 ± 0.0078	0.911 ± 0.022	0.789 ± 0.037	0.612 ± 0.02	0.144 ± 0.094	1 ± 0.055	0.955 ± 0.024	0.937 ± 0.053	0.892 ± 0.1	0.747 ± 0.11	0.241 ± 0.28	1.06 ± 0.025	1.02 ± 0.044	0.998 ± 0.035	0.958 ± 0.049	0.853 ± 0.098	0.263 ± 0.17	1.022 ± 0.0064	1.001 ± 0.0035	0.9817 ± 0.005	0.957 ± 0.015	0.894 ± 0.034	0.357 ± 0.3	1.04 ± 0.036	0.957 ± 0.035	0.868 ± 0.061	0.714 ± 0.15	0.644 ± 0.082	0.199 ± 0.077	1.02 ± 0.043	0.955 ± 0.046	0.892 ± 0.085	0.843 ± 0.075	0.579 ± 0.11	0.147 ± 0.16
CC(=O)Nc1cccc(-n2c(=O)n(C3CC3)c(=O)c3c(Nc4ccc(I)cc4F)n(C)c(=O)c(C)c32)c1 [trametinib]	0.261 ± 0.05	0.203 ± 0.071	0.194 ± 0.091	0.186 ± 0.088	0.179 ± 0.075	0.198 ± 0.091	0.364 ± 0.029	0.365 ± 0.027	0.36 ± 0.011	0.387 ± 0.03	0.427 ± 0.0076	0.425 ± 0.013	0.71 ± 0.046	0.78 ± 0.049	0.743 ± 0.047	0.717 ± 0.053	0.683 ± 0.019	0.762 ± 0.066	0.152 ± 0.076	0.178 ± 0.068	0.182 ± 0.083	0.202 ± 0.071	0.206 ± 0.058	0.231 ± 0.058	0.503 ± 0.17	0.607 ± 0.08	0.565 ± 0.14	0.613 ± 0.11	0.624 ± 0.12	0.631 ± 0.16	0.0906 ± 0.041	0.129 ± 0.1	0.117 ± 0.072	0.11 ± 0.072	0.11 ± 0.082	0.128 ± 0.11
COC1=C2C[C@@H](C)C[C@H](OC)[C@H](O)[C@@H](C)/C=C(\C)[C@H](OC(N)=O)[C@@H](OC)/C=C\C=C(/C)C(=O)NC(=CC1=O)C2=O [geldanamycin]	0.762 ± 0.073	0.219 ± 0.12	0.143 ± 0.062	0.121 ± 0.071	0.0267 ± 0.14	-0.11 ± 0.17	0.503 ± 0.079	0.134 ± 0.026	0.0361 ± 0.021	0.0592 ± 0.03	-0.0316 ± 0.038	-0.3 ± 0.085	0.262 ± 0.1	0.00984 ± 0.086	-0.0513 ± 0.1	-0.0518 ± 0.12	-0.114 ± 0.12	-0.238 ± 0.1	0.111 ± 0.066	-0.0212 ± 0.045	-0.0537 ± 0.053	-0.0551 ± 0.04	-0.0997 ± 0.049	-0.171 ± 0.06	0.0174 ± 0.11	-0.0672 ± 0.11	-0.0584 ± 0.085	-0.03 ± 0.059	-0.187 ± 0.11	-0.441 ± 0.14	0.443 ± 0.2	0.0763 ± 0.097	0.0142 ± 0.17	-0.0565 ± 0.17	-0.148 ± 0.15	-0.284 ± 0.13
Cc1cc(Nc2cc(N3CCN(C)CC3)nc(Sc3ccc(NC(=O)C4CC4)cc3)n2)n[nH]1 [tozasertib]	0.123 ± 0.11	0.0776 ± 0.12	0.108 ± 0.13	0.0732 ± 0.11	0.105 ± 0.12	0.0498 ± 0.077	0.0704 ± 0.017	0.0656 ± 0.024	0.0723 ± 0.044	0.0794 ± 0.022	0.0768 ± 0.026	0.0394 ± 0.0083	0.385 ± 0.12	0.0628 ± 0.1	-0.0205 ± 0.094	-0.0318 ± 0.12	-0.0355 ± 0.11	-0.0179 ± 0.11	0.395 ± 0.2	0.145 ± 0.087	0.124 ± 0.056	0.118 ± 0.064	0.0967 ± 0.04	0.0692 ± 0.053	-0.143 ± 0.11	-0.117 ± 0.076	-0.0975 ± 0.11	-0.082 ± 0.1	-0.0918 ± 0.1	-0.044 ± 0.1	0.0769 ± 0.023	0.056 ± 0.045	0.0918 ± 0.037	0.0708 ± 0.039	0.0979 ± 0.038	0.1 ± 0.13
C[C@]1(O)C[C@@H](c2nc(-c3ccc4ccc(-c5ccccc5)nc4c3)c3c(N)nccn32)C1 [linsitinib]	0.975 ± 0.034	0.979 ± 0.024	0.93 ± 0.019	0.972 ± 0.048	0.963 ± 0.021	0.831 ± 0.072	0.721 ± 0.014	0.749 ± 0.12	0.555 ± 0.19	0.449 ± 0.14	0.383 ± 0.091	0.271 ± 0.089	0.841 ± 0.032	0.9 ± 0.032	0.949 ± 0.07	0.924 ± 0.054	0.896 ± 0.05	0.797 ± 0.051	0.956 ± 0.055	0.911 ± 0.081	0.824 ± 0.16	0.783 ± 0.18	0.731 ± 0.2	0.626 ± 0.26	0.657 ± 0.19	0.765 ± 0.11	0.806 ± 0.067	0.739 ± 0.072	0.678 ± 0.064	0.538 ± 0.085	0.791 ± 0.048	0.843 ± 0.067	0.861 ± 0.085	0.862 ± 0.068	0.838 ± 0.081	0.697 ± 0.099
CCc1cc(Nc2nccc(-c3c(-c4ccc(OC)c(C(=O)Nc5c(F)cccc5F)c4)nc4ccccn34)n2)c(OC)cc1N1CCC(N2CCN(S(C)(=O)=O)CC2)CC1	0.96 ± 0.025	0.958 ± 0.013	0.965 ± 0.017	0.931 ± 0.024	0.951 ± 0.032	0.955 ± 0.023	0.473 ± 0.16	0.418 ± 0.17	0.404 ± 0.092	0.363 ± 0.081	0.358 ± 0.069	0.319 ± 0.091	0.821 ± 0.056	0.902 ± 0.036	0.916 ± 0.017	0.937 ± 0.042	0.961 ± 0.029	0.999 ± 0.043	0.719 ± 0.2	0.699 ± 0.19	0.656 ± 0.22	0.608 ± 0.23	0.621 ± 0.23	0.634 ± 0.18	0.701 ± 0.094	0.841 ± 0.045	0.98 ± 0.02	0.986 ± 0.057	1.04 ± 0.023	1.05 ± 0.027	0.813 ± 0.093	0.864 ± 0.045	0.893 ± 0.027	0.9 ± 0.011	0.971 ± 0.02	0.939 ± 0.024
C[C@@H](Oc1cc(-c2cnn(C3CCNCC3)c2)cnc1N)c1c(Cl)ccc(F)c1Cl [crizotinib]	0.976 ± 0.034	0.965 ± 0.042	0.903 ± 0.014	0.781 ± 0.12	0.367 ± 0.2	0.0436 ± 0.099	0.762 ± 0.07	0.748 ± 0.078	0.618 ± 0.12	0.351 ± 0.17	0.0468 ± 0.047	-0.174 ± 0.065	0.805 ± 0.04	0.91 ± 0.024	0.823 ± 0.015	0.742 ± 0.03	0.391 ± 0.17	-0.0468 ± 0.072	0.988 ± 0.021	0.964 ± 0.032	0.934 ± 0.022	0.906 ± 0.015	0.833 ± 0.028	0.094 ± 0.017	0.687 ± 0.14	0.808 ± 0.096	0.753 ± 0.15	0.629 ± 0.15	0.342 ± 0.14	-0.181 ± 0.092	0.831 ± 0.13	0.885 ± 0.079	0.778 ± 0.096	0.509 ± 0.2	0.175 ± 0.12	-0.0131 ± 0.13
